Data as given in patent US20060110376A1, “MDA-7 and free radicals in the treatment of cancer” (priority 2002, published 2006).

Columns and labels:
[1] = tested on: RCC cell lines A498 and UOK121N; experiment: Cell death (Giemsa staining, trypan blue); assay type: cell-based, human; conditions: 10 mM N-acetyl cysteine 1 h before As2O3
Description: Cells were plated in 6 well plates (˜5×10^4 cells/well) and 24 h later treated with GST, GST-MDA-7 (both 0.5 nM) and As2O3 (0.5 μM) as indicated. Where indicated, cells were pre-treated with 10 mM N-acetyl cysteine 1 h prior to addition of As2O3. Cells were isolated 96 h after GST-MDA-7 treatment. Cell death was determined on isolated fixed cells by Giemsa staining for apoptosis and necrosis (presented as a single value) as described (30). Panel A. UOK121N cells. Panel B. A498 cells. […]
Assessment of Apoptosis and Cell Death. […] For each condition, 10 randomly selected fields per slide were evaluated, encompassing at least 15000 cells (Dai et al., 2002, Cell Cycle 1:143-152; Qiao et al., 2001, Mol. Biol. Cell 12:2629-2645). To confirm the results of morphologic analysis, in some cases cells were also evaluated by TUNEL staining and oligonucleosomal DNA fragmentation assay as follows; staining, cytospin slides were fixed with 4% formaldehyde/PBS for 10 min, treated with acetic acid/ethanol (1:2) for 5 min, and incubated with terminal transferase reaction mixture containing 1× terminal transferase reaction buffer, […] terminal transferase, 2.5 mM CoCl2, and 2 pmol fluorescein-12-dUTP (Boehringer Mannheim, Indianapolis, Ind.) at 37° C. for 1 h. […]
Assessment of Cell Viability. […] Cells (˜400) were counted in all four fields of a hemocytometer.

[2] = tested on: normal cells (immortalized human astrocytes or melanocytes); experiment: MTT viability assay; assay type: cell-based; conditions: Ad.mda-7 100 p.f.u./cell
Description: MTT Viability Assays. Cell viability was assessed by MTT assays as described (Lebedeva et al., 2000, Cancer Research 60:6052-6060). Briefly, cells were seeded in 96-well tissue culture plates (1.5×10^3 cells per well) and treated with various agents. At the indicated times, medium was removed, and fresh medium containing 0.5 mg/ml MTT was added to each well. The cells were incubated at 37° C. for 4 h and then an equal volume of solubilization solution (0.01N HCl in 10% SDS) was added to each well and mixed thoroughly. The optical density from the plates was read on a BioRad Microplate Reader Model 550 at 595 nm.

[3] = tested on: renal carcinoma cells (UOK121N, A498); experiment: Clonogenic survival assay; assay type: cell-based, human; conditions: arsenic trioxide (0.5 μM) alone
Description: Panel A. UOK121N cells. Panel B. A498 cells. Cells were plated in 6 well plates (˜5×10^4 cells/well) and 24 h later treated with GST, GST-MDA-7 (both 0.5 nM) and As2O3 (0.5 μM) as indicated. Cells were isolated 96 h after GST-MDA-7 treatment and cell viability determined using trypan blue exclusion assay (see FIG. 28). Based on trypan blue negative viable cell values, 250, 500 and 2000 viable cells were re-plated in Linbro plates. The plating density for colony formation assays depended upon the prior treatment of the cells and data obtained in FIGS. 27 and 28. 10-14 days after plating, cells were fixed and stained with crystal violet. Colony formation was determined using visual counting, and a colony was defined as a group of >50 cells. Data are the means of 3 separate experiments (±SEM). * p<0.05 less than control cells; # p<0.05 less than As2O3 or GST-MDA-7 treated cells.
Cell Survival Analyses. Cells were assayed for the effect(s) of GST-MDA-7 and arsenic trioxide on cell survival. Cells were plated (10,000 cells per 60 mm dish) and 24 h after plating treated with GST-MDA-7 or GST. Thirty minutes later, cells were treated with arsenic trioxide. Ninety-six hours later, cells were isolated by trypsinization and viable trypan blue negative cells re-plated in 60 mm dishes at 250-1,000 cells per plate. […] Colonies that contain more than 50 cells were then counted. […]

[4] = tested on: A498, UOK121N and primary renal epithelial cells; experiment: MTT cell growth assay, arsenic trioxide alone; assay type: cell-based, human
Description: FIG. 26. Arsenic trioxide causes a concentration-dependent reduction in primary and renal carcinoma cell growth. Cells were plated in 12 well plates (˜1×10^4 cells/well) and 24 h later treated with increasing concentrations of As2O3 as indicated. Cell growth was determined via MTT assay 96 h after GST-MDA-7 treatment. Data are the means of 12 wells (one plate per condition, ±SEM) from a representative experiment using separate As2O3 formulations (n=3). Arsenic trioxide caused a dose-dependent enhancement in cell killing at higher concentrations >10 μM.
MTT Assay for Determination of Cellular Viability. The MTT test is based on the enzymatic reduction of the tetrazolium salt MTT in living, metabolically active cells but not in dead cells. Cells were plated (5-10,000 cells per well of a 12 well plate) and 24 h after plating treated with either GST or GST-MDA-7 at the indicated concentrations. Thirty minutes after protein treatment, cells were treated with arsenic trioxide at the indicated concentrations. The cytotoxicity of the various treatments was assessed four days after irradiation by measurement of cell viability by use of the MTT assay, as described previously (McKinstry et al., 2002, Cancer Biol. Ther. 1:243-253). The plates were read on a Dynatech MR600 Microplate Reader at 540 nm. […]

Compound	effect of N-acetyl-cysteine on cell killing by GST-MDA-7 + arsenic trioxide [1]	growth, combinational treatment with Ad.mda-7 [2]	clonogenicity [3]	concentrations giving dose-dependent enhancement in cell killing [4] [µM]	concentration above which proliferation was dose-dependently reduced ([4]; 96 h)
CC(=O)N[C@@H](CS)C(=O)O [NAC, N-acetyl-cysteine]	significantly reduced cell killing				
arsenic trioxide		does not affect growth of normal cells	significantly reduced clonogenicity	> 10	above 1 μM
